Reference: PubChem BioAssay AID288 (DTP/NCI, 2004)
“And” between values parts separate entries of the source, which are not always exact repeats. Identical values can stand only once. Results filed as inconclusive are left out. Numbered stars: 1 amine (or outer) side, 2 acyl side, 3 side chain; on linkers, the order of the positions; unused ones are H or OH. Bridge positions count the residues as written; N and C are the ends. Square brackets hold non-standard residues; d marks the D form. Peptide text beside a SMILES is read from it. I, II: the chains in the order shown. Actinocin(1to9) = Cc1c2oc3c(C)ccc(C(=O)[*:2])c3nc-2c(C(=O)[*:1])c(N)c1=O; NMeV = CN[CH](C(=O)O)C(C)C; Aze = O=C(O)[CH]1CCN1; Sar = CNCC(=O)O

Test system: BDF1 mice, M5076 sarcoma s.c., survival/tumor T/C
Test: NCI In Vivo Anticancer Drug Screen. Data for tumor model Sarcoma M5076 (subcutaneous) in B6D2F1 (BDF1) mice
Experimental: The antitumor activity of compounds was measured in mice bearing transplantable tumors. Survival or tumor size were measured and the results are expressed as the measurement made in the treated group (T) divided by the measurement made in the vehicle treated control group (C). The tumor model used in this assay is Sarcoma M5076 (subcutaneous) in B6D2F1 (BDF1) mice

For `Cc1c2oc3c(C)ccc(C(=O)NC4C(=O)NC(C(C)C)C(=O)N5CCCC5C(=O)N(C)CC(=O)N(C)C(C(C)C)C(=O)OC4C)c3nc-2c(C(=O)NC2C(=O)NC(C(C)C)C(=O)N3CCC3C(=O)N(C)CC(=O)N(C)C(C(C)C)C(=O)OC2C)c(N)c1=O` (stereo unspecified) (I: TV[Aze][Sar][NMeV] / II: TVP[Sar][NMeV]; ester I:1-I:C, II:1-II:C; linker I:N-II:N via Actinocin(1to9); configuration not given here), the T/C (endpoint: median tumor weight (est.), dose: 14.0 micrograms/kg/injection, schedule: Q02DX011 (ip), vehicle: saline, higher = larger tumour) was 112 % of control, the T/C (endpoint: median tumor weight (est.), dose: 23.3 micrograms/kg/injection, schedule: Q02DX011 (ip), vehicle: saline, higher = larger tumour) was 99 % of control and the T/C (endpoint: median tumor weight (est.), dose: 38.9 micrograms/kg/injection, schedule: Q02DX011 (ip), vehicle: saline, higher = larger tumour) was 87 % of control. For the same compound, the T/C (endpoint: median tumor weight (est.), dose: 64.8 micrograms/kg/injection, schedule: Q02DX011 (ip), vehicle: saline, higher = larger tumour) was 120 % of control, the T/C (endpoint: median tumor weight (est.), dose: 108.0 micrograms/kg/injection, schedule: Q02DX011 (ip), vehicle: saline, higher = larger tumour) was 64 % of control and the T/C (endpoint: median tumor weight (est.), dose: 180.0 micrograms/kg/injection, schedule: Q02DX011 (ip), vehicle: saline, higher = larger tumour) was 96 % of control. For the same compound, the T/C (endpoint: median tumor weight (est.), dose: 300.0 micrograms/kg/injection, schedule: Q02DX011 (ip), vehicle: saline, higher = larger tumour) was 59 % of control.

In the case of `N[C@H](C(=O)O)[C@@H]1CC(Cl)=NO1`, the T/C (endpoint: mean tumor weight, dose: 2.0 mg/kg/injection, schedule: Q02DX011 (ip), vehicle: saline, higher = larger tumour) is reported as 2 % of control, the T/C (endpoint: median survival time, dose: 2.0 mg/kg/injection, schedule: Q01DX010 (ip), vehicle: saline, higher = longer survival) is reported as 165 % of control and the T/C (endpoint: median survival time, dose: 4.0 mg/kg/injection, schedule: Q01DX010 (ip), vehicle: saline, higher = longer survival) is reported as 177 % of control. The T/C (endpoint: median survival time, dose: 8.0 mg/kg/injection, schedule: Q01DX010 (ip), vehicle: saline, higher = longer survival) was 178 % of control, the T/C (endpoint: median survival time, dose: 16.0 mg/kg/injection, schedule: Q01DX010 (ip), vehicle: saline, higher = longer survival) was 90 % of control and the T/C (endpoint: median survival time, dose: 32.0 mg/kg/injection, schedule: Q04DX005 (ip), vehicle: saline, higher = longer survival) was 171 % of control and 176 % of control. The T/C (endpoint: median survival time, dose: 64.0 mg/kg/injection, schedule: Q04DX005 (ip), vehicle: saline, higher = longer survival) was 184 % of control and 186 % of control and the T/C (endpoint: median survival time, dose: 128.0 mg/kg/injection, schedule: Q04DX005 (ip), vehicle: saline, higher = longer survival) was 193 % of control and 195 % of control.

`CN1C(=O)CN2CCc3ccccc3C2c2cc(Cl)ccc21` (stereo unspecified) was tested, and the T/C (endpoint: median survival time, dose: 50.0 mg/kg/injection, schedule: Q01DX009 (ip), vehicle: saline with Tween-80, higher = longer survival) was 99 % of control, the T/C (endpoint: median survival time, dose: 100.0 mg/kg/injection, schedule: Q01DX009 (ip), vehicle: saline with Tween-80, higher = longer survival) was 102 % of control and the T/C (endpoint: median survival time, dose: 200.0 mg/kg/injection, schedule: Q01DX009 (ip), vehicle: saline with Tween-80, higher = longer survival) was 105 % of control.

With `Nc1nc([Se])c2ncn(C3OC(CO)C(O)C3O)c2n1` (stereo unspecified) the T/C (endpoint: median survival time, dose: 4.0 mg/kg/injection, schedule: Q01DX009 (ip), vehicle: saline, higher = longer survival) was 108 % of control, the T/C (endpoint: median survival time, dose: 8.0 mg/kg/injection, schedule: Q01DX009 (ip), vehicle: saline, higher = longer survival) was 118 % of control and the T/C (endpoint: median survival time, dose: 8.0 mg/kg/injection, schedule: Q01DX009 (ip), vehicle: suspension in saline, higher = longer survival) was 118 % of control. For the same compound, the T/C (endpoint: median survival time, dose: 16.0 mg/kg/injection, schedule: Q01DX009 (ip), vehicle: saline, higher = longer survival) was 119 % of control, the T/C (endpoint: median survival time, dose: 16.0 mg/kg/injection, schedule: Q01DX009 (ip), vehicle: suspension in saline, higher = longer survival) was 119 % of control and the T/C (endpoint: median tumor weight (est.), dose: 4.0 mg/kg/injection, schedule: Q01DX009 (ip), vehicle: saline, higher = larger tumour) was 64 % of control. For the same compound, the T/C (endpoint: median tumor weight (est.), dose: 8.0 mg/kg/injection, schedule: Q01DX009 (ip), vehicle: saline, higher = larger tumour) was 33 % of control, the T/C (endpoint: median tumor weight (est.), dose: 8.0 mg/kg/injection, schedule: Q01DX009 (ip), vehicle: suspension in saline, higher = larger tumour) was 24 % of control and the T/C (endpoint: median tumor weight (est.), dose: 16.0 mg/kg/injection, schedule: Q01DX009 (ip), vehicle: saline, higher = larger tumour) was 8 % of control. The T/C (endpoint: median tumor weight (est.), dose: 16.0 mg/kg/injection, schedule: Q01DX009 (ip), vehicle: suspension in saline, higher = larger tumour) was 6 % of control.

In the case of `CN(C)c1nc(N(C)C)nc(N(C)C)n1`, the T/C (endpoint: median survival time, dose: 44.0 mg/kg/injection, schedule: Q04DX006 (ip), vehicle: saline with Tween-80, higher = longer survival) is reported as 97 % of control, the T/C (endpoint: median survival time, dose: 88.0 mg/kg/injection, schedule: Q04DX006 (ip), vehicle: saline with Tween-80, higher = longer survival) is reported as 108 % of control and the T/C (endpoint: median survival time, dose: 176.0 mg/kg/injection, schedule: Q02DX033 (ip), vehicle: saline with Tween-80, higher = longer survival) is reported as 189 % of control. The T/C (endpoint: median survival time, dose: 176.0 mg/kg/injection, schedule: Q04DX006 (ip), vehicle: saline with Tween-80, higher = longer survival) was 120 % of control, the T/C (endpoint: median survival time, dose: 352.0 mg/kg/injection, schedule: Q04DX006 (ip), vehicle: saline with Tween-80, higher = longer survival) was 112 % of control and the T/C (endpoint: median tumor weight (est.), dose: 30.0 mg/kg/injection, schedule: Q02DX011 (ip), vehicle: saline with Tween-80, higher = larger tumour) was 110 % of control. The T/C (endpoint: median tumor weight (est.), dose: 60.0 mg/kg/injection, schedule: Q02DX011 (ip), vehicle: saline with Tween-80, higher = larger tumour) was 54 % of control and the T/C (endpoint: median tumor weight (est.), dose: 120.0 mg/kg/injection, schedule: Q02DX011 (ip), vehicle: saline with Tween-80, higher = larger tumour) was 17 % of control.
